Data set [1] has as its system 16HBE14o- human bronchial epithelial cells. The class given is cell-based. Particulars: 48 h. As for the experimental part:
(§1) T24 human epithelial bladder cells, 16HBE14o- human bronchial epithelial cells and RAW264.7 mouse macrophages were plated at a density of 2.5 × 10^4 cells/well in 96-well microplates. The 16HBE14o- cells were previously incubated with coating solution (88% LHC basal medium, 10% bovine serum albumin, 30 µg/mL bovine collagen type I and 1% human fibronectin). Different concentrations of SET-M33 TFA, acetate and chloride were added 24 h after plating. Cells were grown for 48 h at 37 °C. Their viability was assessed by 3-(4,5-dimethylthiazol-2-yl)2,5-diphenyltetrazolium bromide (MTT) assay. EC50 values were obtained by dose-response variable slope analysis using GraphPad Prism 5.03 software (San Diego, CA, USA).

The subject of data set [2] is RAW264.7 mouse macrophages. The class given is cell-based. Particulars: 48 h. How it is done:
as §1

Data set [3] concerns T24 human bladder epithelial cells. The class given is cell-based. Particulars: 48 h. How it is done: as §1
The subject of data set [4] is CD1 mice. Particulars: cited from earlier work; for signs of acute toxicity in vivo: scored not-observable, mild, severe. How it is done: Table 4 Signs of acute toxicity in vivo of the three SET-M33 salts. | column: 20 mg/kg; 25 mg/kg || Acute toxicity of SET-M33 chloride was tested in mice and compared with the acetate and TFA counter-ions. Ten animals per group (five males and five females) were injected with two doses of SET-M33 chloride, 20 and 30 mg/kg, known to be below the LD50 [7]. Signs of toxicity were scored as not-observable, mild and severe. SET-M33 chloride and SET-M33 acetate scored 100% not-observable (Table 4), unlike the TFA that scored 100% toxicity at 25 mg/kg, described as 33% severe and 66% mild.

A further data set has as its system E. coli TG-1. The class given is cell-based. Particulars: TG-1, 24 h. As for the experimental part: (§2) Antimicrobial susceptibility was assessed by determining the minimum inhibitory concentrations (MICs) of SET-[…] acetate and SET-[…] chloride against E. coli TG-1 and P. aeruginosa PAO-1, using the broth microdilution technique according to 2017 EUCAST guidelines. The MIC assay measures visible inhibition of bacterial growth after 24 h exposure of bacteria to antibiotic in Mueller-Hinton (MH) broth. Assays were performed in triplicate using a bacterial inoculum of 5 × 10^4 CFU/well in a final volume of 100 μL. The twofold antibiotic concentration ranged from 0.1 μM to 12 μM for both peptides. MICs were read after 24 h of incubation at 35 °C.

Another data set deals with P. aeruginosa PAO-1. The class given is cell-based. Particulars: PAO-1, 24 h. How it is done: as §2
The subject of data set [5] is CD1 mice. Nature of the data set: Acute toxicity in mice. Particulars: for signs of acute toxicity in vivo: 10/group, monitored 96 h, scored not-observable, mild, severe; for share of animals scored not-observable for signs of toxicity: i.v. single dose, chloride 20 and 30 mg/kg, acetate 25 and 30 mg/kg. The class given is in vivo, mouse. How it is done:
Acute toxicity of SET-M33 chloride was tested in mice and compared with the acetate and TFA counter-ions. Ten animals per group (five males and five females) were injected with two doses of SET-M33 chloride, 20 and 30 mg/kg, known to be below the LD50 [7]. Signs of toxicity were scored as not-observable, mild and severe. SET-M33 chloride and SET-M33 acetate scored 100% not-observable (Table 4), unlike the TFA that scored 100% toxicity at 25 mg/kg, described as 33% severe and 66% mild.
All animal experiments were conducted under the protocol approved by the Italian Ministry of Health at the Toscana Life Sciences Foundation animal facility in Siena, Italy (authorization n. 34/2016PR). Animals (10 CD1 mice/group, 20–22 g) were injected i.v. with SET-M33 acetate (group 1 and group 2) and SET-M33 chloride (group 3 and group 4), in a single dose. The doses were: group 1, 25 mg/kg SET-M33 acetate; group 2, 30 mg/kg SET-M33 acetate; group 3, 20 mg/kg SET-M33 chloride and group 4, 30 mg/kg SET-M33 chloride. Animals were monitored for 96 h. Signs of toxicity were checked four times a day by visual inspection and were scored as not-observable, mild and severe. Mice were weighed every day from arrival to the last day of the experiment. Animals with clear signs of distress, such as reduced mobility and weight loss greater than 20%, were anesthetized and sacrificed with carbon dioxide or by cervical dislocation.

We go through three compounds from paper PMC6930567, “NMR Study of the Secondary Structure and Biopharmaceutical Formulation of an Active Branched Antimicrobial Peptide” (Molecules, 2019).

Where a name gives a salt, the structure may show the parent alone. Read-outs that look alike come from different tables or passages of the source. Positions of bridges follow the written chain, without caps; N, C: chain ends. Non-standard residues stand in square brackets, D forms with d. Residues, ends and D or L forms follow the SMILES beside them. Chains are numbered I, II in the order given. βAla = NCCC(=O)O

Take `CC[C@H](C)[C@H](NC(=O)[C@H](CCCCN)NC(=O)[C@@H](N)CCCCN)C(=O)N[C@@H](CCCNC(=N)N)C(=O)N[C@H](C(=O)N[C@@H](CCCNC(=N)N)C(=O)N[C@@H](CC(C)C)C(=O)N[C@@H](CO)C(=O)N[C@@H](C)C(=O)NCCCC[C@H](NC(=O)[C@H](C)NC(=O)[C@H](CO)NC(=O)[C@H](CC(C)C)NC(=O)[C@H](CCCNC(=N)N)NC(=O)[C@@H](NC(=O)[C@H](CCCNC(=N)N)NC(=O)[C@@H](NC(=O)[C@H](CCCCN)NC(=O)[C@@H](N)CCCCN)[C@@H](C)CC)C(C)C)C(=O)NCCCC[C@H](NC(=O)[C@H](CCCCNC(=O)[C@H](C)NC(=O)[C@H](CO)NC(=O)[C@H](CC(C)C)NC(=O)[C@H](CCCNC(=N)N)NC(=O)[C@@H](NC(=O)[C@H](CCCNC(=N)N)NC(=O)[C@@H](NC(=O)[C@H](CCCCN)NC(=O)[C@@H](N)CCCCN)[C@@H](C)CC)C(C)C)NC(=O)[C@H](C)NC(=O)[C@H](CO)NC(=O)[C@H](CC(C)C)NC(=O)[C@H](CCCNC(=N)N)NC(=O)[C@@H](NC(=O)[C@H](CCCNC(=N)N)NC(=O)[C@@H](NC(=O)[C@H](CCCCN)NC(=O)[C@@H](N)CCCCN)[C@@H](C)CC)C(C)C)C(=O)NCCC(=O)O)C(C)C` [SET-M33 TFA] (I: H-KKIRVRLSAKK[βAla]-OH / II: H-KKIRVRLSAK / III: H-KKIRVRLSA / IV: H-KKIRVRLSA; amide I:10-IV:C, I:11-II:C, II:10-III:C): the half-maximal effective concentration (EC50) in data set [1] is 11.1 µM. Further, a half-maximal effect in data set [2] (EC50) was put at 3.85 µM. The compound further came in with a 50% effective concentration (EC50) in data set [3] of 13.6 µM. In the data set with CD1 mice [4] (25 mg/kg), the “signs of acute toxicity in vivo” value is recorded as “mild to severe”, the “share of animals with mild signs of toxicity” value is 66%, the “share of animals with severe signs of toxicity” value was 33% and the “toxicity score (share of animals with signs of toxicity)” value is given as 100%.
Regarding `CC[C@H](C)[C@H](NC(=O)[C@H](CCCCN)NC(=O)[C@@H](N)CCCCN)C(=O)N[C@@H](CCCNC(=N)N)C(=O)N[C@H](C(=O)N[C@@H](CCCNC(=N)N)C(=O)N[C@@H](CC(C)C)C(=O)N[C@@H](CO)C(=O)N[C@@H](C)C(=O)NCCCC[C@H](NC(=O)[C@H](C)NC(=O)[C@H](CO)NC(=O)[C@H](CC(C)C)NC(=O)[C@H](CCCNC(=N)N)NC(=O)[C@@H](NC(=O)[C@H](CCCNC(=N)N)NC(=O)[C@@H](NC(=O)[C@H](CCCCN)NC(=O)[C@@H](N)CCCCN)[C@@H](C)CC)C(C)C)C(=O)NCCCC[C@H](NC(=O)[C@H](CCCCNC(=O)[C@H](C)NC(=O)[C@H](CO)NC(=O)[C@H](CC(C)C)NC(=O)[C@H](CCCNC(=N)N)NC(=O)[C@@H](NC(=O)[C@H](CCCNC(=N)N)NC(=O)[C@@H](NC(=O)[C@H](CCCCN)NC(=O)[C@@H](N)CCCCN)[C@@H](C)CC)C(C)C)NC(=O)[C@H](C)NC(=O)[C@H](CO)NC(=O)[C@H](CC(C)C)NC(=O)[C@H](CCCNC(=N)N)NC(=O)[C@@H](NC(=O)[C@H](CCCNC(=N)N)NC(=O)[C@@H](NC(=O)[C@H](CCCCN)NC(=O)[C@@H](N)CCCCN)[C@@H](C)CC)C(C)C)C(=O)NCCC(=O)O)C(C)C` [SET-M33 acetate] (I: H-KKIRVRLSAKK[βAla]-OH / II: H-KKIRVRLSAK / III: H-KKIRVRLSA / IV: H-KKIRVRLSA; amide I:10-IV:C, I:11-II:C, II:10-III:C), the MIC was found to be 1.5 µM in the data set with E. coli TG-1 and 3 µM in the data set on P. aeruginosa PAO-1. Moreover, the EC50 in data set [1] is 9.62 µM; in data set [2] it was 5.1 µM; in data set [3], 12.4 µM. Also, the “signs of acute toxicity in vivo” value in the data set with CD1 mice [5] (25 mg/kg i.v. single dose) is “not-observable”; in the data set with CD1 mice [5] (30 mg/kg i.v. single dose) it was “not-observable”; with CD1 mice [4] (20 mg/kg), “not-observable [6]”. For the same compound, in the data set on CD1 mice [5], the “share of animals scored not-observable for signs of toxicity” value is on record as 100%.
For the compound `CC[C@H](C)[C@H](NC(=O)[C@H](CCCCN)NC(=O)[C@@H](N)CCCCN)C(=O)N[C@@H](CCCNC(=N)N)C(=O)N[C@H](C(=O)N[C@@H](CCCNC(=N)N)C(=O)N[C@@H](CC(C)C)C(=O)N[C@@H](CO)C(=O)N[C@@H](C)C(=O)NCCCC[C@H](NC(=O)[C@H](C)NC(=O)[C@H](CO)NC(=O)[C@H](CC(C)C)NC(=O)[C@H](CCCNC(=N)N)NC(=O)[C@@H](NC(=O)[C@H](CCCNC(=N)N)NC(=O)[C@@H](NC(=O)[C@H](CCCCN)NC(=O)[C@@H](N)CCCCN)[C@@H](C)CC)C(C)C)C(=O)NCCCC[C@H](NC(=O)[C@H](CCCCNC(=O)[C@H](C)NC(=O)[C@H](CO)NC(=O)[C@H](CC(C)C)NC(=O)[C@H](CCCNC(=N)N)NC(=O)[C@@H](NC(=O)[C@H](CCCNC(=N)N)NC(=O)[C@@H](NC(=O)[C@H](CCCCN)NC(=O)[C@@H](N)CCCCN)[C@@H](C)CC)C(C)C)NC(=O)[C@H](C)NC(=O)[C@H](CO)NC(=O)[C@H](CC(C)C)NC(=O)[C@H](CCCNC(=N)N)NC(=O)[C@@H](NC(=O)[C@H](CCCNC(=N)N)NC(=O)[C@@H](NC(=O)[C@H](CCCCN)NC(=O)[C@@H](N)CCCCN)[C@@H](C)CC)C(C)C)C(=O)NCCC(=O)O)C(C)C` [SET-M33 chloride] (I: H-KKIRVRLSAKK[βAla]-OH / II: H-KKIRVRLSAK / III: H-KKIRVRLSA / IV: H-KKIRVRLSA; amide I:10-IV:C, I:11-II:C, II:10-III:C), the MIC against E. coli TG-1 and in the data set with P. aeruginosa PAO-1 was 1.5 µM in each case. Also, the EC50 was 10.3 µM in data set [1], 6.12 µM in data set [2] and 22.6 µM in data set [3]. In addition, the “signs of acute toxicity in vivo” value with CD1 mice [5] (20 mg/kg i.v. single dose) and with CD1 mice [5] (30 mg/kg i.v. single dose) was “not-observable” throughout. Moreover, in the data set on CD1 mice [5], the “share of animals scored not-observable for signs of toxicity” value amounted to 100%.

The term EC50 denotes the concentration needed to bring the measured effect to its halfway point. The low end stands for greater potency, the high end for weaker potency. As a reminder, the MIC is the lowest concentration found to suppress growth. A low value points to inhibition by little substance.
